Data published in patent US20160185797A1, “ALKYNYL ALCOHOLS AND METHODS OF USE” (Genentech, Inc., priority 2013, published 2016).

Molecular target: T1, nuclear factor-kappa B (NF-kB)-inducing kinase (NIK) (Homo sapiens, UniProt Q99558)
T1 construct: made in house; host or cells: baculovirus-infected insect cells
Experiment: NIK enzyme inhibition assay (Transcreener ADP fluorescence polarization, NIK ADP-FP)
Format: biochemical
Method: NIK Enzyme Inhibition Assay:
The ability of the nuclear factor-kappa B (NF-kB)-inducing kinase (NIK) to catalyze the hydrolysis of adenosine-5′-triphosphate (ATP) was monitored using the Transcreener ADP (adenosine-5′-diphosphate) assay (BellBrook Labs). […] Reactions were quenched by the addition of 20 mM 2,2′,2″,2′″-(ethane-1,2-diyldinitrilo)tetraacetic acid and 0.01% Brij 35. The tracer bound to the antibody was displaced by the ADP generated during the NIK reaction, which causes a decrease in fluorescence polarization that was measured by laser excitation at 633 nm with a Fluorescence Correlation Spectroscopy Plus reader (Evotec AG). Equilibrium dissociation constant (Ki) values for NIK inhibitors are calculated from plots of activity vs. inhibitor concentration using Morrison's quadratic equation that accounts for the potential of tight binding, and by also applying the conversion factor that accounted for competitive inhibition and the concentration of substrate used in the assay relative to its Michaelis constant (Km).

T1 sequence (Q99558 whole entry): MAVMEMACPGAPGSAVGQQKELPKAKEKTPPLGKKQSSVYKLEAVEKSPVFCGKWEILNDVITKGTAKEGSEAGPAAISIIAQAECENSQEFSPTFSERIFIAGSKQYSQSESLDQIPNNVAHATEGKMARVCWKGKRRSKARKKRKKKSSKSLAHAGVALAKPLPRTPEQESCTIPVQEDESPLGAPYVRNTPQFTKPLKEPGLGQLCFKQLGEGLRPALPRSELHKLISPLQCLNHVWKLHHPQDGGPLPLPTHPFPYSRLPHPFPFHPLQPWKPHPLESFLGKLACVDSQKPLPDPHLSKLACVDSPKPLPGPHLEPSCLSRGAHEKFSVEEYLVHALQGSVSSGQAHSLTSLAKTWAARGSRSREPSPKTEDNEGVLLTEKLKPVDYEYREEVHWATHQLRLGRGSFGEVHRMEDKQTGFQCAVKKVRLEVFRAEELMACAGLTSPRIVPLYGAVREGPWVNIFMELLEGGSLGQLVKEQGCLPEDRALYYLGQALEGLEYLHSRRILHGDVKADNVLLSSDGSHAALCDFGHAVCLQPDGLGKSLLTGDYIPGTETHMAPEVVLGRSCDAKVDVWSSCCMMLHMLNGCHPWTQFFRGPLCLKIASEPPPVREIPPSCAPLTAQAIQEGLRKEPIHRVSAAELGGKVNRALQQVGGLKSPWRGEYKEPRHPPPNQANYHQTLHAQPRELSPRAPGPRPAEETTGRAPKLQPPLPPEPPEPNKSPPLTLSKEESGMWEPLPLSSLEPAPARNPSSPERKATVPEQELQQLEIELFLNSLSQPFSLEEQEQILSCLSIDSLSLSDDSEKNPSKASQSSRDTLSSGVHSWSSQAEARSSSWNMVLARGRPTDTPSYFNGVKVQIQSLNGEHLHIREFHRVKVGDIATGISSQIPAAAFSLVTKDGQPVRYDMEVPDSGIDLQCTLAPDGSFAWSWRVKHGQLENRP

Structure (SMILES) | Ki [nM]
CN1CC[C@@](O)(C#Cc2cccc(-c3nc(N[C@H]4CCOC4)cc(C(N)=O)n3)c2)C1=O (single isomer, unassigned) [Example 30] | 23.2
NC(=O)c1nc(-c2cccc(C#C[C@]3(O)CCOC3=O)c2)ccc1N (single isomer, unassigned) [Example 64] | 4.07
NC(=O)c1nc(-c2cccc(C#C[C@@]3(O)CCOC3=O)c2)ccc1N (single isomer, unassigned) [Example 65] | 38
CN1CCC(O)(C#Cc2cccc(-c3nc(C(N)=O)ncc3NCC(F)(F)F)c2)C1=O (stereo in doubt) [Example 147, 4-[3-[2-[(3R)-3-hydroxy-1-methyl-2-oxo-pyrrolidin-3-yl]ethynyl]phenyl]-5-(2,2,2-trifluoroethylamino) pyrimidine-2-carboxamide] | 879
CC(=O)N1CCN(c2cc(C(N)=O)nc(-c3cccc(C#C[C@]4(O)CCN(C)C4=O)c3)n2)CC1 [Example 7, 6-(4-acetylpiperazin-1-yl)-2-[3-[2-[(3R)-3-hydroxy-1-methyl-2-oxo-pyrrolidin-3-yl]ethynyl]phenyl]pyrimidine-4-carboxamide] | 1.25
CN1CC[C@@](O)(C#Cc2cccc(-c3nc(C(N)=O)cc(N4CC[C@@H](O)C4)n3)c2)C1=O [Example 24, 2-[3-[2-[(3R)-3-hydroxy-1-methyl-2-oxo-pyrrolidin-3-yl]ethynyl]phenyl]-6-[(3R)-3-hydroxypyrrolidin-1-yl] pyrimidine-4-carboxamide] | 1.05
CC(C)C[C@H]1CCCN1c1cc(C(N)=O)nc(-c2cccc(C#C[C@]3(O)CCN(C)C3=O)c2)n1 [Example 25, 2-[3-[2-[(3R)-3-hydroxy-1-methyl-2-oxo-pyrrolidin-3-yl]ethynyl]phenyl]-6-[(2R)-2-isobutylpyrrolidin-1-yl] pyrimidine-4-carboxamide] | 5.57
Cc1cnc([C@@](C)(O)C#Cc2cccc(-c3nc(C(N)=O)c4ccn(C)c4n3)c2)o1 [Example 54, 2-[3-[(3S)-3-hydroxy-3-(5-methyloxazol-2-yl)but-1-ynyl]phenyl]-7-methyl-pyrrolo[2,3-d] pyrimidine-4-carboxamide] | 510
CN1CC[C@@](O)(C#Cc2cccc(-c3nc(C(N)=O)cc4nccn34)c2)C1=O [Example 61, 5-[3-[2-[(3R)-3-hydroxy-1-methyl-2-oxo-pyrrolidin-3-yl]ethynyl]phenyl]imidazo [1,2-c]pyrimidine-7-carboxamide] | 4.33
CN1CC[C@@](O)(C#Cc2cccc(-c3nccc(C(N)=O)n3)c2F)C1=O [Example 91, 2-[2-fluoro-3-[2-[(3R)-3-hydroxy-1-methyl-2-oxo-pyrrolidin-3-yl]ethynyl]phenyl]pyrimidine-4-carboxamide] | 14.4
CN1CC[C@@](O)(C#Cc2cccc(-c3ncc(N4CCOCC4)c(C(N)=O)n3)c2)C1=O [Example 103, 2-[3-[2-[(3R)-3-hydroxy-1-methyl-2-oxo-pyrrolidin-3-yl]ethynyl]phenyl]-5-morpholino-pyrimidine-4-carboxamide] | 22.8
CC(C)n1ncc2c(-c3cccc(C#C[C@]4(O)CCN(C)C4=O)c3)nc(C(N)=O)cc21 [Example 115, 4-[3-[2-[(3R)-3-hydroxy-1-methyl-2-oxo-pyrrolidin-3-yl]ethynyl]phenyl]-1-isopropyl-pyrazolo[4,3-c]pyridine-6-carboxamide] | 1.77
Cc1nnc([C@](C)(O)C#Cc2cccc(-c3nccc(C(N)=O)n3)c2)o1 [Example 138, 2-[3-[(3R)-3-hydroxy-3-(5-methyl-1,3,4-oxadiazol-2-yl)but-1-ynyl]phenyl]pyrimidine-4-carboxamide] | 60.2
Cc1ccc(C(N)=O)nc1-c1cccc(C#C[C@]2(O)CCN(C)C2=O)c1 [Example 140, 6-[3-[2-[(3R)-3-hydroxy-1-methyl-2-oxo-pyrrolidin-3-yl]ethynyl]phenyl]-5-methyl-pyridine-2-carboxamide] | 23.8
CN1CC[C@@](O)(C#Cc2cc(-c3nccc(C(N)=O)n3)c3cn[nH]c3c2)C1=O [Example 156, 2-[6-[2-[(3R)-3-hydroxy-1-methyl-2-oxo-pyrrolidin-3-yl]ethynyl]-1H-indazol-4-yl] pyrimidine-4-carboxamide] | 11.3
CN1CC[C@@](O)(C#Cc2cccc(-c3ccc(F)c(C(N)=O)n3)c2)C1=O [Example 157, 3-fluoro-6-[3-[2-[(3R)-3-hydroxy-l-methyl-2-oxo-pyrrolidin-3-yl]ethynyl]phenyl] pyridine-2-carboxamide] | 1.86
CN1CC[C@@](O)(C#Cc2cccc(-c3cc(NC4COC4)cc(C(N)=O)n3)c2)C1=O [Example 163, 6-[3-[2-[(3R)-3-hydroxy-1-methyl-2-oxo-pyrrolidin-3-yl]ethynyl]phenyl]-4-(oxetan-3-ylamino)pyridine-2-carboxamide] | 0.21
CC(=O)Nc1cc(C(N)=O)nc(-c2cccc(C#C[C@]3(O)CCN(C)C3=O)c2)c1 [Example 175, 4-acetamido-6-[3-[2-[(3R)-3-hydroxy-1-methyl-2-oxo-pyrrolidin-3-yl]ethynyl]phenyl] pyridine-2-carboxamide] | 0.08
CN1CC[C@@](O)(C#Cc2cccc(-c3cc(O)cc(C(N)=O)n3)c2)C1=O [Example 176, 4-hydroxy-6-[3-[2-[(3R)-3-hydroxy-1-methyl-2-oxo-pyrrolidin-3-yl]ethynyl]phenyl] pyridine-2-carboxamide] | 0.96
CN1CC[C@@](O)(C#Cc2cc(-c3nc(C(N)=O)cc4c3cnn4C)ccc2F)C1=O [Example 177, 4-[4-fluoro-3-[2-[(3R)-3-hydroxy-l-methyl-2-oxo-pyrrolidin-3-yl]ethynyl]phenyl]-1-methyl-pyrazolo [4,3-c]pyridine-6-carboxamide] | < 0.05

The remaining lines, values ahead:

Ki [nM] | Structure (SMILES)
2.87 | Cc1c(O)cc(-c2cccc(C#C[C@]3(O)CCN(C)C3=O)c2)nc1C(N)=O [Example 178, 4-hydroxy-6-[3-[2-[(3R)-3-hydroxy-1-methyl-2-oxo-pyrrolidin-3-yl]ethynyl]phenyl]-3-methyl-pyridine-2-carboxamide]
< 0.05 | COc1cc(C(N)=O)nc(-c2cc(C#C[C@]3(O)CCN(C)C3=O)ccc2F)c1 [Example 179, 6-[2-fluoro-5-[2-[(3R)-3-hydroxy-l-methyl-2-oxo-pyrrolidin-3-yl]ethynyl]phenyl]-4-methoxy-pyridine-2-carboxamide]
< 0.05 | COc1cc(C(N)=O)nc(-c2ccc(F)c(C#C[C@]3(O)CCN(C)C3=O)c2)c1 [Example 180, 6-[4-fluoro-3-[2-[(3R)-3-hydroxy-1-methyl-2-oxo-pyrrolidin-3-yl]ethynyl]phenyl]-4-methoxy-pyridine-2-carboxamide]
3.67 | COc1cc(-c2cccc(C#C[C@]3(O)CCN(C)C3=O)c2)nc(C(N)=O)c1OC [Example 181, 6-[3-[2-[(3R)-3-hydroxy-l-methyl-2-oxo-pyrrolidin-3-yl]ethynyl]phenyl]-3,4-dimethoxy-pyridine-2-carboxamide]
0.17 | CN1CC[C@@](O)(C#Cc2cccc(-c3cc(-n4ccnc4)cc(C(N)=O)n3)c2)C1=O [Example 182, 6-[3-[2-[(3R)-3-hydroxy-l-methyl-2-oxo-pyrrolidin-3-yl]ethynyl]phenyl]-4-imidazol-1-yl-pyridine-2-carboxamide]
0.49 | COCc1cc(-c2cccc(C#C[C@]3(O)CCN(C)C3=O)c2)nc(C(N)=O)n1 [Example 183, 4-[3-[2-[(3R)-3-hydroxy-l-methyl-2-oxo-pyrrolidin-3-yl]ethynyl]phenyl]-6-(methoxymethyl)pyrimidine-2-carboxamide]
0.14 | CN1CC[C@@](O)(C#Cc2cc3c(c(-c4nccc(C(N)=O)n4)c2)CCN3)C1=O [Example 184, 2-[6-[2-[(3R)-3-hydroxy-1-methyl-2-oxo-pyrrolidin-3-yl]ethynyl]indolin-4-yl] pyrimidine-4-carboxamide]
0.5 | COc1cc(C(N)=O)nc(-c2cccc(C#C[C@]3(O)CCN(C)C3=O)c2)c1F [Example 185, 5-fluoro-6-[3-[2-[(3R)-3-hydroxy-1-methyl-2-oxo-pyrrolidin-3-yl]ethynyl]phenyl]-4-methoxy-pyridine-2-carboxamide]
0.14 | CN1CC[C@@](O)(C#Cc2cccc(-c3nc(C(N)=O)cc4c3OCC4)c2)C1=O [Example 186, 7-[3-[2-[(3R)-3-hydroxy-1-methyl-2-oxo-pyrrolidin-3-yl]ethynyl]phenyl]-2,3-dihydrofuro[1,3-c]pyridine-5-carboxamide]
0.06 | CN1CC[C@@](O)(C#Cc2cccc(-c3ccc(C(F)F)c(C(N)=O)n3)c2)C1=O [Example 187, 3-(difluoromethyl)-6-[3-[2-[(3R)-3-hydroxy-1-methyl-2-oxo-pyrrolidin-3-yl]ethynyl]phenyl]pyridine-2-carboxamide]
9.53 | CN1CC[C@@](O)(C#Cc2cccc(-c3nc(C(N)=O)ccc3C(F)F)c2)C1=O [Example 188, 5-(difluoromethyl)-6-[3[2-[(3R)-3-hydroxy-1-methyl-2-oxo-pyrrolidin-3-yl]ethynyl]phenyl]pyridine-2-carboxamide]
0.15 | CN1CC[C@@](O)(C#Cc2cccc(-c3cc(OCC(F)(F)F)cc(C(N)=O)n3)c2)C1=O [Example 189, 6-[3-[2-[(3R)-3-hydroxy-1-methyl-2-oxo-pyrrolidin-3-yl]ethynyl]phenyl]-4(2,2,2-trifluoroethoxy)pyridine-2-carboxamide]
< 0.05 | CN1CC[C@@](O)(C#Cc2cccc(-c3cc(-n4cc(F)cn4)cc(C(N)=O)n3)c2)C1=O [Example 190, 4-(4-fluoropyrazol-1-yl)-6-[3-[2-[(3R)-3-hydroxy-1-methyl-2-oxo-pyrrolidin-3-yl]ethynyl]phenyl]pyridine-2-carboxamide]
< 0.05 | COc1cc(C(N)=O)nc(-c2cc(C#C[C@]3(O)CCN(C)C3=O)c(F)cc2F)c1 [Example 191, 6[2,4-difluoro-5-[2-[(3R)-3-hydroxy-l-methy1-2-oxo-pyrrolidin-3-yl]ethynyl]phenyl]-4-methoxy-pyridine-2-carboxamide]
0.4 | CN1CC[C@@](O)(C#Cc2cccc(-c3nc(C(N)=O)c4c(n3)N(C)CC4)c2)C1=O [Example 192, 2-[3-[2-[(3R)-3-hydroxy-1-methyl-2-oxo-pyrrolidin-3-yl]ethynyl]phenyl]-7-methyl-5,6-dihydropyrrolo[2,3-d] pyrimidine-4-carboxamide]
